Assay results from US8436043B2 (Takeda Pharmaceutical Company Limited, priority 2008, dated 2013).

These molecules were tested against T1, human glucagon receptor (Homo sapiens, UniProt P47871) (assay: Glucagon binding inhibitory activity ([125I]-glucagon binding to glucagon receptor membrane protein)). Conditions: human glucagon receptor membrane protein, [125I]-glucagon, 90 min room temperature.
T1 construct: made in house; host or cells: FreeStyle CHO cells, transient transfection with pMSRαneo/hGCGR; membrane fraction (35,000 rpm pellet)
Method in brief: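 Receptor source was a membrane fraction of transiently transfected CHO cells bearing human receptor; 90 min room-temperature binding, filtration harvest, scintillation counting.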

T1 sequence (P47871 26-477): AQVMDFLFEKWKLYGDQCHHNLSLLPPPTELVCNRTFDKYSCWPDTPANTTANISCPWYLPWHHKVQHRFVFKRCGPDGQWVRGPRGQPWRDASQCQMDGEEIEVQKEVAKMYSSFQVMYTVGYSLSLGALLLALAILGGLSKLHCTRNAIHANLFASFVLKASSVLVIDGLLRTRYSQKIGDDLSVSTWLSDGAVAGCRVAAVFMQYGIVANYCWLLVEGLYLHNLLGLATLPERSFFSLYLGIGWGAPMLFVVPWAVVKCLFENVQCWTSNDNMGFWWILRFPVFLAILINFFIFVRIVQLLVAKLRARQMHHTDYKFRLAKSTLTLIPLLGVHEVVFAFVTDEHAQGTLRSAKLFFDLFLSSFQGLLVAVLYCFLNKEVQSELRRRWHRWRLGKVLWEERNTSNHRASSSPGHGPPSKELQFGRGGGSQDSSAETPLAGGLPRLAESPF

**Q.** With O=C(O)CCNC(=O)c1ccc(NC(c2cc3ccc(C(F)(F)F)cc3s2)C2CCCCC2)cc1 (stereo not shown) [Example A12, 3-({[4-({cyclohexyl[6-(trifluoromethyl)-1-benzothiophen-2-yl]methyl}amino)phenyl]carbonyl}amino)propanoic acid] as the molecule, how does the IC50 read?
**A.** Its IC50 is 210 nM.

Same assay, conditions: test compound 10 μM; 0.4% DMSO = 0%, non-labeled glucagon 1 μM = 100%; read-out: inhibitory rate (%) at 10 μM

**Q.** How did the inhibition at 10 µM turn out when Cc1c(C(Nc2ccc(C(=O)NCCC(=O)O)nc2)C2CCCCC2)oc2ccc(F)cc12 (stereo not shown) [Example A55, 3-{[(5-{[cyclohexyl(5-fluoro-3-methyl-1-benzofuran-2-yl)methyl]amino}pyridin-2-yl)carbonyl]amino}propanoic acid] was run?
**A.** Its inhibition at 10 µM is 90%.

**Q.** How did the inhibition at 10 µM turn out when COc1ccc(-c2ccc3oc(C(Nc4ccc(C(=O)N(C)CCC(=O)O)cc4)C(C)C)c(C)c3c2)cn1 (stereo not shown) [Example A182, 3-[{[4-({1-[5-(6-methoxypyridin-3-yl)-3-methyl-1-benzofuran-2-yl]-2-methylpropyl}amino)phenyl]carbonyl}(methyl)amino]propanoic acid] was run?
**A.** Its inhibition at 10 µM is 95%.

**Q.** CCCCCCC(Nc1ccc(C(=O)N(C)CCC(=O)O)cc1)c1cc2cc(Cl)ccc2n1C (stereo not shown) [Example A141, 3-{[(4-{[1-(5-chloro-1-methyl-1H-indol-2-yl)heptyl]amino}phenyl)carbonyl](methyl)amino}propanoic acid] was tested. Which inhibition at 10 µM did it give?
**A.** Its inhibition at 10 µM is 86%.

**Q.** Which inhibition at 10 µM does the source give for Cc1c(C(Nc2ccc(C(=O)N(C)CCC(=O)O)cc2)C2CCCCC2)oc2ccc(Oc3ccc(C#N)cn3)cc12 (stereo not shown) [Example A202, 3-{[(4-{[{5-[(5-cyanopyridin-2-yl)oxy]-3-methyl-1-benzofuran-2-yl}(cyclohexyl)methyl]amino}phenyl)carbonyl](methyl)amino}-propanoic acid] here?
**A.** The inhibition at 10 µM was 86%.

**Q.** CCOc1cccc(-n2cc(C(Nc3ccc(C(=O)N(C)CCC(=O)O)cc3)C3CCCCC3)c(CC)n2)c1 (stereo not shown) [Example 83, 3-[{[4-({cyclohexyl[1-(3-ethoxyphenyl)-3-ethyl-1H-pyrazol-4-yl]methyl}amino)phenyl]carbonyl}(methyl)amino]propanoic acid] was tested. Which inhibition at 10 µM did it give?
**A.** Its inhibition at 10 µM is 78%.

**Q.** With Cc1nn(-c2ccc(OC(F)(F)F)cc2)cc1C(Nc1ccc(C(=O)N(C)CCC(=O)O)cc1)C1CCCCC1 (stereo not shown) [Example 26, 3-[({4-[(cyclohexyl{3-methyl-1-[4-(trifluoromethoxy)phenyl]-1H-pyrazol-4-yl}methyl)amino]phenyl}carbonyl)(methyl)amino]propanoic acid] as the molecule, how does the inhibition at 10 µM read?
**A.** The inhibition at 10 µM was 72%.

**Q.** Which inhibition at 10 µM does the source give for Cc1c(C(Nc2ccc(C(=O)NCCC(=O)O)cc2)C2CCCCC2)oc2ccc(C#N)cc12 (stereo not shown) [Example A98, 3-{[(4-{[(5-cyano-3-methyl-1-benzofuran-2-yl)(cyclohexyl)methyl]amino}phenyl)carbonyl]amino}propanoic acid] here?
**A.** The inhibition at 10 µM was 78%.

**Q.** With COc1cccc2cc(C(Nc3ccc(C(=O)NCCC(=O)O)cc3)C3CCCCC3)oc12 (stereo not shown) [Example A20, 3-{[(4-{[cyclohexyl(7-methoxy-1-benzofuran-2-yl)methyl]amino}phenyl)carbonyl]amino}propanoic acid] as the molecule, how does the inhibition at 10 µM read?
**A.** Its inhibition at 10 µM is 72%.

**Q.** How did the inhibition at 10 µM turn out when COc1ccc2oc(C(CC(C)C)Nc3ccc(C(=O)N(C)CCC(=O)O)cc3)c(C)c2c1 (stereo not shown) [Example A93, 3-{[(4-{[1-(5-methoxy-3-methyl-1-benzofuran-2-yl)-3-methylbutyl]amino}phenyl)carbonyl](methyl)amino}propanoic acid] was run?
**A.** The inhibition at 10 µM was 70%.

**Q.** How did the inhibition at 10 µM turn out when COc1ccc(-n2cc(C(Nc3ccc(C(=O)NCCC(=O)O)cc3)C3CCCCC3)c(C3CC3)n2)cc1 (stereo not shown) [Example 46, 3-({[4-({cyclohexyl[3-cyclopropyl-1-(4-methoxyphenyl)-1H-pyrazol-4-yl]methyl}amino)phenyl]carbonyl}amino)propanoic acid] was run?
**A.** The inhibition at 10 µM was 71%.

**Q.** Which inhibition at 10 µM does the source give for Cc1c(C(Nc2ccc(C(=O)NCCC(=O)O)cc2)C2CCCCC2)sc2cnccc12 (stereo not shown) [Example A137, 3-{[(4-{[cyclohexyl(3-methylthieno[2,3-c]pyridin-2-yl)methyl]amino}phenyl)carbonyl]amino}propanoic acid] here?
**A.** Its inhibition at 10 µM is 75%.

**Q.** With COCc1nn(-c2cccc(C(F)(F)F)n2)cc1C(Nc1ccc(C(=O)N(C)CCC(=O)O)cc1)C1CCCCC1 (stereo not shown) [Example 90, 3-[({4-[(cyclohexyl{3-(methoxymethyl)-1-[6-(trifluoromethyl)pyridin-2-yl]-1H-pyrazol-4-yl}methyl)amino]phenyl}carbonyl)(methyl)amino]propanoic acid] as the molecule, how does the inhibition at 10 µM read?
**A.** The inhibition at 10 µM was 66%.

**Q.** COCc1nn(-c2ccc(OC(F)(F)F)cc2)cc1C(Nc1ccc(C(=O)N(C)CCC(=O)O)cc1)C1CCCCC1 (stereo not shown) [Example 34, 3-[({4-[(cyclohexyl{3-(methoxymethyl)-1-[4-(trifluoromethoxy)phenyl]-1H-pyrazol-4-yl}methyl)amino]phenyl}carbonyl)(methyl)amino]propanoic acid] was tested. Which inhibition at 10 µM did it give?
**A.** Its inhibition at 10 µM is 79%.

**Q.** With O=C(O)CCNC(=O)c1ccc(NC(c2cn(-c3ccccc3)nc2OCc2ccccc2)C2CCCCC2)cc1 (stereo not shown) [Example 66, 3-({[4-({[3-(benzyloxy)-1-phenyl-1H-pyrazol-4-yl](cyclohexyl)methyl}amino)phenyl]carbonyl}amino)propanoic acid] as the molecule, how does the inhibition at 10 µM read?
**A.** The inhibition at 10 µM was 74%.

**Q.** For Cc1c(C(CC(C)C)Nc2ccc(C(=O)N(C)CCC(=O)O)cc2)oc2ccccc12 (stereo not shown) [Example A24, 3-{methyl[(4-{[3-methyl-1-(3-methyl-1-benzofuran-2-yl)butyl]amino}phenyl)carbonyl]amino}propanoic acid], which inhibition at 10 µM is on record?
**A.** Its inhibition at 10 µM is 70%.

**Q.** How did the inhibition at 10 µM turn out when O=C(O)CCNC(=O)c1ccc(NC(c2cc3ccc(C(F)(F)F)cc3s2)C2CCCCC2)cc1 (stereo not shown) [Example A12, 3-({[4-({cyclohexyl[6-(trifluoromethyl)-1-benzothiophen-2-yl]methyl}amino)phenyl]carbonyl}amino)propanoic acid] was run?
**A.** Its inhibition at 10 µM is 72%.

**Q.** With Cc1c(C(CC(C)C)Nc2ccc(C(=O)NCCC(=O)O)cc2)sc2ccccc12 (stereo not shown) [Example A33, 3-{[(4-{[3-methyl-1-(3-methyl-1-benzothiophen-2-yl)butyl]amino}phenyl)carbonyl]amino}propanoic acid] as the molecule, how does the inhibition at 10 µM read?
**A.** The inhibition at 10 µM was 76%.

**Q.** Cc1c(C(Nc2ccc(C(=O)N(C)CCC(=O)O)cc2)C2CCCCC2)sc2cnccc12 (stereo not shown) [Example A136, 3-{[(4-{[cyclohexyl(3-methylthieno[2,3-c]pyridin-2-yl)methyl]amino}phenyl)carbonyl](methyl)amino}propanoic acid] was tested. Which inhibition at 10 µM did it give?
**A.** Its inhibition at 10 µM is 62%.

**Q.** Which inhibition at 10 µM does the source give for Cc1c(C(Nc2ccc(C(=O)NCCC(=O)O)cc2)C2CCCCC2)oc2ccc(OCc3ccnc(F)c3)cc12 (stereo not shown) [Example A167, 3-[({4-[(cyclohexyl{5-[(2-fluoropyridin-4-yl)methoxy]-3-methyl-1-benzofuran-2-yl}methyl)amino]phenyl}carbonyl)amino]propanoic acid] here?
**A.** Its inhibition at 10 µM is 86%.

**Q.** CN(CCC(=O)O)C(=O)c1ccc(NC(c2cn(-c3ccc(C(F)(F)F)cn3)nc2C(C)(C)C)C2CCCCC2)cc1 (stereo not shown) [Example 14, 3-{[(4-{[{3-tert-butyl-1-[5-(trifluoromethyl)pyridin-2-yl]-1H-pyrazol-4-yl}(cyclohexyl)methyl]amino}phenyl)carbonyl](methyl)amino}-propanoic acid] was tested. Which inhibition at 10 µM did it give?
**A.** The inhibition at 10 µM was 71%.

**Q.** Which inhibition at 10 µM does the source give for COCc1c(C(Nc2ccc(C(=O)N(C)CCC(=O)O)cc2)C2CCCCC2)oc2ccc(F)cc12 (stereo not shown) [Example A48, 3-[{[4-({cyclohexyl[5-fluoro-3-(methoxymethyl)-1-benzofuran-2-yl]methyl}amino)phenyl]carbonyl}(methyl)amino]propanoic acid] here?
**A.** Its inhibition at 10 µM is 66%.

**Q.** COc1cc(OC)cc(-n2cc(C(Nc3ccc(C(=O)N(C)CCC(=O)O)cc3)C3CCCCC3)c(C)n2)c1 (stereo not shown) [Example 81, 3-[{[4-({cyclohexyl[1-(3,5-dimethoxyphenyl)-3-methyl-1H-pyrazol-4-yl]methyl}amino)phenyl]carbonyl}(methyl)amino]propanoic acid] was tested. Which inhibition at 10 µM did it give?
**A.** Its inhibition at 10 µM is 82%.

**Q.** Which inhibition at 10 µM does the source give for Cc1c(C(Nc2ccc(C(=O)N(C)CCC(=O)O)cc2)C2CCCCC2)oc2ccc(Br)nc12 (stereo not shown) [Example A126, 3-{[(4-{[(5-bromo-3-methylfuro[3,2-b]pyridin-2-yl)(cyclohexyl)methyl]amino}phenyl)carbonyl](methyl)amino}-propanoic acid] here?
**A.** Its inhibition at 10 µM is 68%.

**Q.** CN(CCC(=O)O)C(=O)c1ccc(NC(c2nn(-c3ccccc3)c3ccccc23)C2CCCCC2)cc1 (stereo not shown) [Example A15, 3-{[(4-{[cyclohexyl(1-phenyl-1H-indazol-3-yl)methyl]amino}phenyl)carbonyl](methyl)amino}propanoic acid] was tested. Which inhibition at 10 µM did it give?
**A.** The inhibition at 10 µM was 72%.

**Q.** Which inhibition at 10 µM does the source give for COc1ccc2oc(C(Nc3ccc(C(=O)NCCC(=O)O)cc3)C3CCCCC3)c(C)c2c1 (stereo not shown) [Example A30, 3-{[(4-{[cyclohexyl(5-methoxy-3-methyl-1-benzofuran-2-yl)methyl]amino}phenyl)carbonyl]amino}propanoic acid] here?
**A.** The inhibition at 10 µM was 76%.

**Q.** How did the inhibition at 10 µM turn out when Cc1cc(COc2ccc3oc(C(Nc4ccc(C(=O)N(C)CCC(=O)O)cc4)C4CCCCC4)c(C)c3c2)no1 (stereo not shown) [Example A194, 3-[({4-[(cyclohexyl{3-methyl-5-[(5-methylisoxazol-3-yl)methoxy]-1-benzofuran-2-yl}methyl)amino]phenyl}carbonyl)(methyl)amino]propanoic acid] was run?
**A.** The inhibition at 10 µM was 88%.

**Q.** With CCc1nn(-c2ccc(OC)cc2)cc1C(CC(C)C)Nc1ccc(C(=O)NCCC(=O)O)cc1 (stereo not shown) [Example 48, 3-({[4-({1-[3-ethyl-1-(4-methoxyphenyl)-1H-pyrazol-4-yl]-3-methylbutyl}amino)phenyl]carbonyl}amino)propanoic acid] as the molecule, how does the inhibition at 10 µM read?
**A.** Its inhibition at 10 µM is 63%.

**Q.** For Cc1c(C(Nc2ccc(C(=O)N(C)CCC(=O)O)cc2)C(C)C)oc2ccc(OC3CCOCC3)cc12 (stereo not shown) [Example A180, 3-(methyl{[4-({2-methyl-1-[3-methyl-5-(tetrahydro-2H-pyran-4-yloxy)-1-benzofuran-2-yl]propyl}amino)phenyl]carbonyl}amino)propanoic acid], which inhibition at 10 µM is on record?
**A.** Its inhibition at 10 µM is 83%.

**Q.** COc1ccc2cc(C(Nc3ccc(C(=O)NCCC(=O)O)cc3)C3CCCCC3)oc2c1 (stereo not shown) [Example A35, 3-{[(4-{[cyclohexyl(6-methoxy-1-benzofuran-2-yl)methyl]amino}phenyl)carbonyl]amino}propanoic acid] was tested. Which inhibition at 10 µM did it give?
**A.** Its inhibition at 10 µM is 71%.

**Q.** Which inhibition at 10 µM does the source give for COCCOCc1c(C(Nc2ccc(C(=O)N(C)CCC(=O)O)cc2)C2CCCCC2)oc2ccc(F)cc12 (stereo not shown) [Example A133, 3-[({4-[(cyclohexyl{5-fluoro-3-[(2-methoxyethoxy)methyl]-1-benzofuran-2-yl}methyl)amino]phenyl}carbonyl)(methyl)amino]propanoic acid] here?
**A.** The inhibition at 10 µM was 80%.
